Tests used:
[1] = biological target: intracellular GCN2 (phosphorylation of the GCN2 substrate eIF2α) (Homo sapiens, UniProt Q9P2K8); test: GCN2 cellular inhibition assay (AlphaScreen SureFire P-eIF2α Ser51, borrelidin-treated U2OS cells); format: cell-based; conditions: compounds of Formula II; biomarker assay, phosphorylated eIF2α Ser51 in borrelidin-treated U2OS cells
Method in brief: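 U2OS cells adhered overnight, then treated with compounds (4-fold serial dilutions from 40 μM final) plus borrelidin 10 μM final for 1 h at 37 °C. Lysate eIF2α Ser51 phosphorylation measured by AlphaScreen SureFire. Percent inhibition calculated relative to borrelidin-only wells.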

GCN2 kinase = GCN2 kinase (Homo sapiens, UniProt Q9P2K8); test: GCN2 enzyme inhibition assay (Transcreener ADP2 fluorescence polarization); format: biochemical; conditions: compounds of Formula II; 280 μM ATP, 4 nM GCN2 kinase
Chain of GCN2 kinase (Q9P2K8 whole entry): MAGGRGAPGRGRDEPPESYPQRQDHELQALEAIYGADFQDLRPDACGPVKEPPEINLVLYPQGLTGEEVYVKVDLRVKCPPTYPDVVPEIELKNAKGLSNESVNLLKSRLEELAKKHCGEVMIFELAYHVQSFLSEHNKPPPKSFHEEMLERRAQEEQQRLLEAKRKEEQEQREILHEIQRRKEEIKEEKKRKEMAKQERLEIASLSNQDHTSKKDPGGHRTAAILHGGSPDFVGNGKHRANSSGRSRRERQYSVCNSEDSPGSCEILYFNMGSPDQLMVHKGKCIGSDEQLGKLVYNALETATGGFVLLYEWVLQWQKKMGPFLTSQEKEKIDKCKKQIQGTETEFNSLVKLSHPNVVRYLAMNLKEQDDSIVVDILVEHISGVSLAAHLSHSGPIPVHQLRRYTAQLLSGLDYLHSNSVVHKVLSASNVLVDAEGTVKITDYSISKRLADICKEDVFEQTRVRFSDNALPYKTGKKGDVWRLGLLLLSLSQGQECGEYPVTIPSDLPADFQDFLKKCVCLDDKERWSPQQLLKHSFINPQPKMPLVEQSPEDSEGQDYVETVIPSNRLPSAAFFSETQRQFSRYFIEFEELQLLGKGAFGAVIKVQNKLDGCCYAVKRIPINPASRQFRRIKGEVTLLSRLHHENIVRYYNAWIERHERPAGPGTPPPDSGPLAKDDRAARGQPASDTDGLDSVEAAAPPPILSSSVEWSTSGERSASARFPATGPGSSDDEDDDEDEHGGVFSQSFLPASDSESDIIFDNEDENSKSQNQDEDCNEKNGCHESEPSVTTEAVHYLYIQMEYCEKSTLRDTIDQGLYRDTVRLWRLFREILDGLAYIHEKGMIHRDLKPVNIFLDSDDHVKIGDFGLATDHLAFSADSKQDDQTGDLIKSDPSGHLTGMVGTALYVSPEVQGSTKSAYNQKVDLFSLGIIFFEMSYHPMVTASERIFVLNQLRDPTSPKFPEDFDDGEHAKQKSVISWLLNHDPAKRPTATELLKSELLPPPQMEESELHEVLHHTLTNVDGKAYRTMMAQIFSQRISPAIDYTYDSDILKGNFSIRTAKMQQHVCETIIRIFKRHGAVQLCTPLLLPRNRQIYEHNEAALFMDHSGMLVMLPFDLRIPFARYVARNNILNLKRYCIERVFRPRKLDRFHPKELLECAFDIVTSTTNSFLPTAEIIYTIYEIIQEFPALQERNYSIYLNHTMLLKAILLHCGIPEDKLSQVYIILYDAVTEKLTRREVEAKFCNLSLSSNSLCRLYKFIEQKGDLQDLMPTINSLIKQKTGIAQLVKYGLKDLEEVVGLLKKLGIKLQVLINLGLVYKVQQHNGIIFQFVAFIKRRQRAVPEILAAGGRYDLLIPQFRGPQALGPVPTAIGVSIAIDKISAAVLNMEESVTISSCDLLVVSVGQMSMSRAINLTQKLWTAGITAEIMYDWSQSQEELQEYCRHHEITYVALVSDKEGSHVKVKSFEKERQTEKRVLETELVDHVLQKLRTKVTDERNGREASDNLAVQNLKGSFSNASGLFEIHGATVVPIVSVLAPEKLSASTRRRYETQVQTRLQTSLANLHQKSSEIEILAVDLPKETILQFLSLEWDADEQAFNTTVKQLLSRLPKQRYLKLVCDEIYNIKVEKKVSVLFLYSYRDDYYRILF
Method in brief: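 Kinase activity is followed as ADP formation, measured by fluorescence polarization, using 4 nM enzyme with 280 μM ATP and 200 μM (RS)7 peptide at pH 7.5 and 25 °C for 1 h. Values come from a non-linear tight-binding fit.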

Chain of intracellular GCN2 (phosphorylation of the GCN2 substrate eIF2α) (Q9P2K8 whole entry): as above

SMILES	IC50 [1]	Ki (GCN2 kinase)
NC(=O)CCC1CCCN(c2cc(-c3cnc4ccc(C(F)F)nn34)ncn2)C1 (stereo not drawn) [II-214, 3-(1-(6-(6-(Difluoromethyl)imidazo[1,2-b]pyridazin-3-yl)pyrimidin-4-yl)piperidin-3-yl)propanamide]	0.5 to 5 µM	0.01 to 1 µM
NC(=O)NCC1CCCN(c2cc(-c3cnc4ccc(C(F)F)nn34)ncn2)C1 (stereo not drawn) [II-215, 1-((1-(6-(6-(Difluoromethyl)imidazo[1,2-b]pyridazin-3-yl)pyrimidin-4-yl)piperidin-3-yl)methyl)urea]	0.5 to 5 µM	0.01 to 1 µM
O=C(NC1CC1)NC1CCN(c2cc(-c3cnc4ccc(C(F)F)nn34)ncn2)C1 (stereo not drawn) [II-216, 1-Cyclopropyl-3-(1-(6-(6-(difluoromethyl)imidazo[1,2-b]pyridazin-3-yl)pyrimidin-4-yl)pyrrolidin-3-yl)urea]	> 5 µM	0.01 to 1 µM
FC(F)c1ccc2ncc(-c3cc(N4CCC(Cc5ccn[nH]5)CC4)ncn3)n2n1 [II-217, 3-(6-(4-((1H-Pyrazol-5-yl)methyl)piperidin-1-yl)pyrimidin-4-yl)-6-(difluoromethyl)imidazo[1,2-b]pyridazine]	0.5 to 5 µM	0.01 to 1 µM
CC(=O)Nc1cccc2c1CCN(c1cc(-c3cnc4ccc(C(F)F)nn34)ncn1)C2 [II-218, N-(2-(6-(6-(Difluoromethyl)imidazo[1,2-b]pyridazin-3-yl)pyrimidin-4-yl)-1,2,3,4-tetrahydroisoquinolin-5-yl)acetamide]	0.5 to 5 µM	0.01 to 1 µM
NS(=O)(=O)CC1CCCN(c2cc(-c3cnc4ccc(C(F)F)nn34)ncn2)C1 (stereo not drawn) [II-219, (1-(6-(6-(Difluoromethyl)imidazo[1,2-b]pyridazin-3-yl)pyrimidin-4-yl)piperidin-3-yl)methanesulfonamide]	< 0.5 µM	< 0.01 µM
CC1C(CNS(C)(=O)=O)CCCN1c1cc(-c2cnc3ccc(C(F)F)nn23)ncn1 (stereo not drawn) [II-221, N-((1-(6-(6-(Difluoromethyl)imidazo[1,2-b]pyridazin-3-yl)pyrimidin-4-yl)-2-methylpiperidin-3-yl)methyl)methanesulfonamide]	< 0.5 µM	< 0.01 µM
CC(=O)N1CCCC(c2cc(-c3cnc4ccc(C(F)F)nn34)ncn2)C1 (stereo not drawn) [II-222, 1-(3-(6-(6-(Difluoromethyl)imidazo[12-b]pyridazin-3-yl)pyrimidin-4-yl)piperidin-1-yl)ethan-1-one]	0.5 to 5 µM	0.01 to 1 µM
CC(=O)N1CCN(c2cc(-c3cnc4ccc(C(F)(F)F)nn34)ccn2)CC1 [II-223, 1-(4-(4-(6-(Trifluoromethyl)imidazo[1,2-b]pyridazin-3-yl)pyridin-2-yl)piperazin-1-yl)ethanone]	> 5 µM	0.01 to 1 µM
CS(=O)(=O)NC[C@@H]1CN(c2cc(-c3cnc4ccc(C(F)(F)F)nn34)ccn2)CCO1 [II-224, (S)—N-((4-(4-(6-(Trifluoromethyl)imidazo[1,2-b]pyridazin-3-yl)pyridin-2-yl)morpholin-2-yl)methyl)methanesulfonamide]	0.5 to 5 µM	0.01 to 1 µM
FC(F)(F)c1ccc2ncc(-c3ccnc(N4CCOC(c5cn[nH]c5)C4)c3)n2n1 (stereo not drawn) [II-225, 2-(1H-Pyrazol-4-yl)-4-(4-(6-(trifluoromethyl)imidazo[1,2-b]pyridazin-3-yl)pyridin-2-yl)morpholine]	< 0.5 µM	< 0.01 µM
O=C1OC2(CC2)[C@@H]2CN(c3cc(-c4cnc5ccc(C(F)(F)F)nn45)ccn3)CCN12 [II-226, (S)-7′-(4-(6-(Trifluoromethyl)imidazo[1,2-b]pyridazin-3-yl)pyridin-2-yl)tetrahydrospiro[cyclopropane-1,1′-oxazolo[3,4-a]pyrazin]-3′(5′H)-one]	0.5 to 5 µM	0.01 to 1 µM
CS(=O)(=O)CC1CCCN(c2cc(-c3cnc4ccc(C(F)(F)F)nn34)ccn2)C1 (stereo not drawn) [II-227, 3-(2-(3-((Methylsulfonyl)methyl)piperidin-1-yl)pyridin-4-yl)-6-(trifluoromethyl)imidazo[1,2-b]pyridazine]	> 5 µM	0.01 to 1 µM
CS(=O)(=O)C1CCCN(c2cc(-c3cnc4ccc(C(F)(F)F)nn34)ccn2)C1 (stereo not drawn) [II-228, 3-(2-(3-(Methylsulfonyl)piperidin-1-yl)pyridin-4-yl)-6-(trifluoromethyl)imidazo[1,2-b]pyridazine]	> 5 µM	0.01 to 1 µM
CS(=O)(=O)NC1CCCN(c2cc(-c3cnc4ccc(C(F)(F)F)nn34)ccn2)C1 (stereo not drawn) [II-231, N-(1-(4-(6-(Trifluoromethyl)imidazo[1,2-b]pyridazin-3-yl)pyridin-2-yl)piperidin-3-yl)methanesulfonamide]	0.5 to 5 µM	0.01 to 1 µM
CS(=O)(=O)NCC1COCCN(c2cc(-c3cnc4ccc(C(F)(F)F)nn34)ccn2)C1 (stereo not drawn) [II-232, N-((4-(4-(6-(Trifluoromethyl)imidazo[1,2-b]pyridazin-3-yl)pyridin-2-yl)-1,4-oxazepan-6-yl)methyl)methanesulfonamide]	0.5 to 5 µM	0.01 to 1 µM
C[C@H]1CO[C@@H](CNS(C)(=O)=O)CN1c1cc(-c2cnc3ccc(C(F)F)nn23)ncn1 [II-234, N-(((2R,5S)-4-(6-(6-(difluoromethyl)imidazo[1,2-b]pyridazin-3-yl)pyrimidin-4-yl)-5-methylmorpholin-2-yl)methyl)methanesulfonamide]	0.5 to 5 µM	0.01 to 1 µM
CN(CC1CC(O)CN(c2cc(-c3cnc4ccc(C(F)F)nn34)ncn2)C1)S(C)(=O)=O (stereo not drawn) [II-235, N-((1-(6-(6-(Difluoromethyl)imidazo[1,2-b]pyridazin-3-yl)pyrimidin-4-yl)-5-hydroxypiperidin-3-yl)methyl)-N-methylmethanesulfonamide]	0.5 to 5 µM	0.01 to 1 µM
C[C@H]1CN(c2cc(-c3cnc4ccc(C(F)F)nn34)ncn2)C[C@@H]1CNS(C)(=O)=O [II-237, N-(((3R,4R)-1-(6-(6-(Difluoromethyl)imidazo[1,2-b]pyridazin-3-yl)pyrimidin-4-yl)-4-methylpyrrolidin-3-yl)methyl)methanesulfonamide]	0.5 to 5 µM	< 0.01 µM
CC1CN(c2cc(-c3cnc4ccc(C(F)F)nn34)ncn2)CC1CNS(C)(=O)=O (stereo not drawn) [II-238, N-((1-(6-(6-(Difluoromethyl)imidazo[1,2-b]pyridazin-3-yl)pyrimidin-4-yl)-4-methylpyrrolidin-3-yl)methyl)methanesulfonamide]	0.5 to 5 µM	0.01 to 1 µM
CC1(O)CCN(c2cc(-c3cnc4ccc(C(F)F)nn34)ncn2)CC1CNS(C)(=O)=O (stereo not drawn) [II-239, N-((1-(6-(6-(Difluoromethyl)imidazo[1,2-b]pyridazin-3-yl)pyrimidin-4-yl)-4-hydroxy-4-methylpiperidin-3-yl)methyl)methanesulfonamide]	0.5 to 5 µM	< 0.01 µM
CC1(O)CCN(c2cc(-c3cnc4ccc(C(F)F)nn34)ncn2)CC1CNS(C)(=O)=O (stereo not drawn) [II-240, N-((1-(6-(6-(Difluoromethyl)imidazo[1,2-b]pyridazin-3-yl)pyrimidin-4-yl)-4-hydroxy-4-methylpiperidin-3-yl)methyl)methanesulfonamide]	< 0.5 µM	< 0.01 µM
CC1C(CNS(C)(=O)=O)CCN1c1cc(-c2cnc3ccc(C(F)F)nn23)ncn1 (stereo not drawn) [II-243, N-((1-(6-(6-(Difluoromethyl)imidazo[1,2-b]pyridazin-3-yl)pyrimidin-4-yl)-2-methylpyrrolidin-3-yl)methyl)methanesulfonamide]	0.5 to 5 µM	0.01 to 1 µM
CC1C(CNS(C)(=O)=O)CCN1c1cc(-c2cnc3ccc(C(F)F)nn23)ncn1 (stereo not drawn) [II-244, N-((1-(6-(6-(Difluoromethyl)imidazo[1,2-b]pyridazin-3-yl)pyrimidin-4-yl)-2-methylpyrrolidin-3-yl)methyl)methanesulfonamide]	> 5 µM	0.01 to 1 µM
CC1CCC(CNS(C)(=O)=O)CN1c1cc(-c2cnc3ccc(C(F)F)nn23)ncn1 (stereo not drawn) [II-245, N-((1-(6-(6-(Difluoromethyl)imidazo[1,2-b]pyridazin-3-yl)pyrimidin-4-yl)-6-methylpiperidin-3-yl)methyl)methanesulfonamide]	> 5 µM	0.01 to 1 µM
CC1CCC(CNS(C)(=O)=O)CN1c1cc(-c2cnc3ccc(C(F)F)nn23)ncn1 (stereo not drawn) [II-246, N-((1-(6-(6-(Difluoromethyl)imidazo[1,2-b]pyridazin-3-yl)pyrimidin-4-yl)-6-methylpiperidin-3-yl)methyl)methanesulfonamide]	> 5 µM	0.01 to 1 µM
C[C@@H]1CC[C@H](CNS(C)(=O)=O)CN1c1cc(-c2cnc3ccc(C(F)F)nn23)ncn1 [II-247, N-(((3S,6R)-1-(6-(6-(Difluoromethyl)imidazo[1,2-b]pyridazin-3-yl)pyrimidin-4-yl)-6-methylpiperidin-3-yl)methyl)methanesulfonamide]	< 0.5 µM	< 0.01 µM
CC1CCC(CNS(C)(=O)=O)CN1c1cc(-c2cnc3ccc(C(F)F)nn23)ncn1 (stereo not drawn) [II-248, N-((1-(6-(6-(Difluoromethyl)imidazo[1,2-b]pyridazin-3-yl)pyrimidin-4-yl)-6-methylpiperidin-3-yl)methyl)methanesulfonamide]	0.5 to 5 µM	0.01 to 1 µM
CS(=O)(=O)NC[C@@H]1CN(c2cc(-c3cnc4ccc(C5CC5)nn34)ncn2)CCO1 [II-249, (S)—N-((4-(6-(6-Cyclopropylimidazo[1,2-b]pyridazin-3-yl)pyrimidin-4-yl)morpholin-2-yl)methyl)methanesulfonamide]	0.5 to 5 µM	0.01 to 1 µM
CS(=O)(=O)N1CCC(c2cc(-c3cnc4ccc(C(F)F)nn34)ncn2)C1 (stereo not drawn) [II-250, 6-(Difluoromethyl)-3-(6-(1-(methylsulfonyl)pyrrolidin-3-yl)pyrimidin-4-yl)imidazo[1,2-b]pyridazine]	> 5 µM	0.01 to 1 µM

Source: patent US10988477B2 (Merck Patent GmbH, priority 2018, dated 2021)
